System: corneal esterase enzymes
Test: Enzymatic hydrolysis of fluprostenol 1,15-lactone by corneal esterase enzymes (incubation with bovine corneal tissue; TLC and HPLC analysis)
Type: in vitro ADME
Settings: pH 7.4 phosphate buffered saline, 37° C.
Protocol: Enzymatic hydrolysis of fluprostenol 1,15-lactone by corneal esterase enzymes was documented by suspending 500 μg of fluprostenol 1,15-lactone in 10 ml of pH 7.4 phosphate buffered saline containing approximately 40 mg of freshly collected bovine cornea! tissue. The mixture was incubated at 37° C. and analyzed at 2 hour, 4 hour and 18 hour time intervals by Thin Layer Chromatography (TLC; Analtech silica gel G-60 plates) using 40:60 acetone:dichloromethane containing 0.5% acetic acid. The plates were visualized by spraying with vanillin dissolved in methanol and phosphoric acid; followed by charring on a hot plate. PGF2α methyl ester, which is known to be hydrolyzed by corneal esterases, was subjected to the same procedure as a control.
The results are shown in FIGS. 3A-3D which are images of chromatography plates developed at 2 hours (FIGS. 3A and 3C) and 4 hours (FIGS. 3B and 3D), respectively. […]
The mixture of fluprostenol 1,15-lactone and bovine corneal tissue was also analyzed using HPLC under the conditions specified in FIGS. 4A and 4B which are graphic representations of the HPLC analysis results for a fluprostenol 1,15-lactone standard (FIG. 4A) and a mixture of fluprostenol 1,15-lactone and bovine corneal tissue incubated for 4 hours (FIG. 4B).

O=C1CCC/C=C\CC2C(/C=C/[C@@H](COc3cccc(C(F)(F)F)c3)O1)[C@H](O)C[C@@H]2O (some centres unmarked) [fluprostenol 1,15-lactone]
conversion of fluprostenol 1,15-lactone to fluprostenol free acid (HPLC, after 4 hours): more than 50% | release of the free acid by hydrolysis (TLC, by 4 hours): clearly shown

— US20080070978A1, “Internal 1,15-Lactones Of Fluprostenol And Related Prostaglandin F2a Analogs And Their Use In The Treatment Of Glaucoma And Intraocular Hypertension” (priority 2000, published 2008)
